Laboratory results: PubChem BioAssay (NCI)
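48-hour exposure; five concentrations; linearly interpolated endpoints. The concentration for 50% growth inhibition is given as GI50. TGI: total growth inhibition.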

Tests used:
Assay in all cases: DTP human tumour cell line panel, 48 h
SF-268 CNS = test system: SF-268 CNS
NCI-H460 lung = test system: NCI-H460 lung
SK-MEL-28 melanoma = test system: SK-MEL-28 melanoma
OVCAR-4 ovarian = test system: OVCAR-4 ovarian
KM12 colon = test system: KM12 colon
SNB-75 CNS = test system: SNB-75 CNS
SF-295 CNS = test system: SF-295 CNS
CAKI-1 renal = test system: CAKI-1 renal
RPMI-8226 leukemia = test system: RPMI-8226 leukemia
NCI/ADR-RES ovarian = test system: NCI/ADR-RES ovarian
SK-MEL-2 melanoma = test system: SK-MEL-2 melanoma
HCT-15 colon = test system: HCT-15 colon
SNB-19 CNS = test system: SNB-19 CNS
K-562 leukemia = test system: K-562 leukemia
HOP-92 NSCLC = test system: HOP-92 NSCLC
SK-MEL-5 melanoma = test system: SK-MEL-5 melanoma
SF-539 CNS = test system: SF-539 CNS
DU-145 prostate = test system: DU-145 prostate
COLO 205 colon = test system: COLO 205 colon
MDA-MB-231 breast = test system: MDA-MB-231 breast
OVCAR-8 ovarian = test system: OVCAR-8 ovarian
UO-31 renal = test system: UO-31 renal
M14 melanoma = test system: M14 melanoma
RXF 393 renal = test system: RXF 393 renal
NCI-H226 lung = test system: NCI-H226 lung
UACC-257 melanoma = test system: UACC-257 melanoma
CCRF-CEM leukemia = test system: CCRF-CEM leukemia
786-0 renal = test system: 786-0 renal
BT-549 breast = test system: BT-549 breast
SN12C renal = test system: SN12C renal
NCI-H522 lung = test system: NCI-H522 lung
SK-OV-3 ovarian = test system: SK-OV-3 ovarian
U251 CNS = test system: U251 CNS
HOP-62 NSCLC = test system: HOP-62 NSCLC
HCC-2998 colon = test system: HCC-2998 colon
NCI-H23 lung = test system: NCI-H23 lung
MDA-MB-435 = test system: MDA-MB-435
PC-3 prostate = test system: PC-3 prostate
MOLT-4 leukemia = test system: MOLT-4 leukemia
LOX IMVI melanoma = test system: LOX IMVI melanoma
TK-10 renal = test system: TK-10 renal
HT29 colon = test system: HT29 colon
HL-60(TB) leukemia = test system: HL-60(TB) leukemia
HCT-116 colon = test system: HCT-116 colon
SW-620 colon = test system: SW-620 colon
OVCAR-3 ovarian = test system: OVCAR-3 ovarian
MCF7 breast = test system: MCF7 breast
A549 NSCLC = test system: A549 NSCLC
ACHN renal = test system: ACHN renal
SR leukemia = test system: SR leukemia
UACC-62 melanoma = test system: UACC-62 melanoma
T-47D breast = test system: T-47D breast
OVCAR-5 ovarian = test system: OVCAR-5 ovarian
EKVX NSCLC = test system: EKVX NSCLC
A498 renal = test system: A498 renal

`O=c1c2ccccc2c(/C=N\NC2=NCCN2)c2oc3ccccc3n12` was tested, and the GI50 (SF-268 CNS) was 57.8 µM, the TGI (SF-268 CNS) was > 100 µM and the GI50 (NCI-H460 lung) was 17.8 µM. For the same compound, the TGI (NCI-H460 lung) was 39.5 µM, the GI50 (SK-MEL-28 melanoma) was 20.7 µM and the TGI (SK-MEL-28 melanoma) was 49 µM. For the same compound, the GI50 (OVCAR-4 ovarian) was 23.7 µM, the TGI (OVCAR-4 ovarian) was 65.7 µM and the GI50 (KM12 colon) was 16.7 µM. The TGI (KM12 colon) was 34.4 µM, the GI50 (SNB-75 CNS) was 19.4 µM and the TGI (SNB-75 CNS) was 42 µM. It also gave a GI50 (SF-295 CNS) of 13.5 µM, a TGI (SF-295 CNS) of 27.8 µM and a GI50 (CAKI-1 renal) of 27.2 µM. For the same compound, the TGI (CAKI-1 renal) was > 100 µM, the GI50 (RPMI-8226 leukemia) was 28.6 µM and the TGI (RPMI-8226 leukemia) was > 100 µM. The GI50 (NCI/ADR-RES ovarian) was > 100 µM, the TGI (NCI/ADR-RES ovarian) was > 100 µM and the GI50 (SK-MEL-2 melanoma) was 21.8 µM. The TGI (SK-MEL-2 melanoma) was 87.6 µM, the GI50 (HCT-15 colon) was 14.7 µM and the TGI (HCT-15 colon) was 62.1 µM. It also gave a GI50 (SNB-19 CNS) of 22.5 µM, a TGI (SNB-19 CNS) of 51.3 µM and a GI50 (K-562 leukemia) of 22.2 µM. The TGI (K-562 leukemia) was > 100 µM, the GI50 (HOP-92 NSCLC) was 22.5 µM and the TGI (HOP-92 NSCLC) was 51.1 µM. The GI50 (SK-MEL-5 melanoma) was 21.3 µM, the TGI (SK-MEL-5 melanoma) was 41.7 µM and the GI50 (SF-539 CNS) was 18.1 µM. It also gave a TGI (SF-539 CNS) of 36.3 µM, a GI50 (DU-145 prostate) of 15 µM and a TGI (DU-145 prostate) of 34.7 µM. It also gave a GI50 (COLO 205 colon) of 18.8 µM, a TGI (COLO 205 colon) of 38.7 µM and a GI50 (MDA-MB-231 breast) of 16.7 µM. The TGI (MDA-MB-231 breast) was 35 µM, the GI50 (OVCAR-8 ovarian) was 19.4 µM and the TGI (OVCAR-8 ovarian) was 45.6 µM. It also gave a GI50 (UO-31 renal) of 18.8 µM, a TGI (UO-31 renal) of 70.9 µM and a GI50 (M14 melanoma) of 34.4 µM. For the same compound, the TGI (M14 melanoma) was > 100 µM, the GI50 (RXF 393 renal) was 21.4 µM and the TGI (RXF 393 renal) was 40.2 µM. For the same compound, the GI50 (NCI-H226 lung) was 19.2 µM, the TGI (NCI-H226 lung) was 48.2 µM and the GI50 (UACC-257 melanoma) was > 100 µM. The TGI (UACC-257 melanoma) was > 100 µM, the GI50 (CCRF-CEM leukemia) was 32.2 µM and the TGI (CCRF-CEM leukemia) was > 100 µM. For the same compound, the GI50 (786-0 renal) was 33.9 µM, the TGI (786-0 renal) was > 100 µM and the GI50 (BT-549 breast) was 31.3 µM. The TGI (BT-549 breast) was > 100 µM, the GI50 (SN12C renal) was 11.2 µM and the TGI (SN12C renal) was 27.7 µM. For the same compound, the GI50 (NCI-H522 lung) was 16.2 µM, the TGI (NCI-H522 lung) was 67.6 µM and the GI50 (SK-OV-3 ovarian) was 19.5 µM. It also gave a TGI (SK-OV-3 ovarian) of 40.8 µM, a GI50 (U251 CNS) of 18.7 µM and a TGI (U251 CNS) of 51.2 µM. The GI50 (HOP-62 NSCLC) was 28.6 µM, the TGI (HOP-62 NSCLC) was > 100 µM and the GI50 (HCC-2998 colon) was 12.9 µM. The TGI (HCC-2998 colon) was 34.1 µM, the GI50 (NCI-H23 lung) was 15.7 µM and the TGI (NCI-H23 lung) was 37.6 µM. The GI50 (MDA-MB-435) was 38 µM, the TGI (MDA-MB-435) was > 100 µM and the GI50 (PC-3 prostate) was 23 µM. The TGI (PC-3 prostate) was 45.6 µM, the GI50 (MOLT-4 leukemia) was 23.8 µM and the TGI (MOLT-4 leukemia) was > 100 µM. For the same compound, the GI50 (LOX IMVI melanoma) was 13.2 µM, the TGI (LOX IMVI melanoma) was 31.3 µM and the GI50 (TK-10 renal) was 16.3 µM. The TGI (TK-10 renal) was 31.3 µM, the GI50 (HT29 colon) was 20.7 µM and the TGI (HT29 colon) was > 100 µM. For the same compound, the GI50 (HL-60(TB) leukemia) was 25.3 µM, the TGI (HL-60(TB) leukemia) was 92.6 µM and the GI50 (HCT-116 colon) was 19.1 µM. The TGI (HCT-116 colon) was > 100 µM, the GI50 (SW-620 colon) was 22.1 µM and the TGI (SW-620 colon) was 74 µM. It also gave a GI50 (OVCAR-3 ovarian) of 18.6 µM, a TGI (OVCAR-3 ovarian) of 34.3 µM and a GI50 (MCF7 breast) of 18.5 µM. For the same compound, the TGI (MCF7 breast) was 40.8 µM, the GI50 (A549 NSCLC) was 16.4 µM and the TGI (A549 NSCLC) was 60.3 µM. For the same compound, the GI50 (ACHN renal) was 14.2 µM, the TGI (ACHN renal) was 29.9 µM and the GI50 (SR leukemia) was 6.12 µM. For the same compound, the TGI (SR leukemia) was > 100 µM, the GI50 (UACC-62 melanoma) was 16.3 µM and the TGI (UACC-62 melanoma) was 33.4 µM. The GI50 (T-47D breast) was 17.6 µM, the TGI (T-47D breast) was 36 µM and the GI50 (OVCAR-5 ovarian) was 19.8 µM. It also gave a TGI (OVCAR-5 ovarian) of 37.1 µM, a GI50 (EKVX NSCLC) of 16.5 µM and a TGI (EKVX NSCLC) of 37.2 µM.
Work on `C#CC[C@@H]1C[C@]2(C)[C@H]3CC[C@@H]4[C@H]5C(C(=C)C)CC[C@]5(C(=O)NCCCCCCCCN)CC[C@@]4(C)[C@]3(C)CC[C@H]2C(C)(C)[C@H]1OC(C)=O` (stereo partly specified) yielded a GI50 (KM12 colon) of 1.73 µM, a TGI (KM12 colon) of 3.22 µM and a GI50 (A498 renal) of 2250 nM. For the same compound, the TGI (A498 renal) was 5.35 µM, the GI50 (UO-31 renal) was 1.46 µM and the TGI (UO-31 renal) was 2.84 µM. It also gave a GI50 (SW-620 colon) of 1.71 µM and a TGI (SW-620 colon) of 3.31 µM.
